# Entries after “also recorded” stand apart in the source; their conditions may differ. Peptide text beside a SMILES is read from it.
# Experiments:
# PD1:PDL1 interaction = molecular target: T1, PD1:PDL1 interaction (Homo sapiens, UniProt Q15116); experiment: Time-course competitive inhibition of PD1:PDL1 under saturating PDL1 (1:12); assay type: binding; settings: inhibitor preincubated, 3 μM; PD1:PDL1 1:12; two hours; n = 4
# T1 construct: purchased BPS Bioscience 72005
# Description: Time-course experiments were repeated by preincubating the non-covalent inhibitor 2c in one case, or the covalent ADAPTins2ca and 2cb at the same concentration.
# [1] = Variable-temperature CD melting curves (CD-melts at 228±2 nm and 202±2 nm), individual and global two-state fits; assay type: physicochemical
# Outline: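 Far-UV CD melts (0 to 95 °C) at 15-120 µM peptide in 15 mM phosphate buffer, concentration set by Trp/Tyr absorbance at 280 nm; CD-exciton intensity taken as %-folding probe. Melting curves fitted individually and globally to a two-state model.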
# N-deglycosylated PD1 = experiment: SDS-PAGE analysis of covalent conjugation to N-deglycosylated PD1; assay type: biochemical; settings: N-deglycosylated PD1, 12 h, 37 °C, pH 6.5, peptide/protein 4:1 to 16:1
# [2] = molecular target: T2, cell surface PD1 on CD3+/CD8+ cells of h-PBMCs (Homo sapiens, UniProt Q15116); experiment: In cellulo PD1 blockade on h-PBMCs by flow cytometry; assay type: cell-based; settings: h-PBMC cultures, 30 h, n = 3
# T2 construct: endogenous in cells; host or cells: healthy human PBMCs (CD45+, CD3+/CD8+ gated)
# Description: Then, an ex vivo immune cell culture system using h-PBMCs and exhausted PBMCs from a melanoma patient (e-PBMCs) was used to determine the efficacy of selected ADAPTin peptides on T-effector cells (Fig. 6).[91,92] T-cell exhaustion typically leads to a reduction in cytokine release, cytotoxic activity, as well as slower T-cell proliferation.
# [3] = xlsx sheet of the peptide, individual fit of CD-melt
# T1 sequence (Q15116 25-167 limits assumed): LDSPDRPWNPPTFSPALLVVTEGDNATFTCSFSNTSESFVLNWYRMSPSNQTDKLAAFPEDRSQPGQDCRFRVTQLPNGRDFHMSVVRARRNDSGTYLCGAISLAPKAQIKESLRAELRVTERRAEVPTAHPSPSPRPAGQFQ
# T2 sequence (Q15116 25-288): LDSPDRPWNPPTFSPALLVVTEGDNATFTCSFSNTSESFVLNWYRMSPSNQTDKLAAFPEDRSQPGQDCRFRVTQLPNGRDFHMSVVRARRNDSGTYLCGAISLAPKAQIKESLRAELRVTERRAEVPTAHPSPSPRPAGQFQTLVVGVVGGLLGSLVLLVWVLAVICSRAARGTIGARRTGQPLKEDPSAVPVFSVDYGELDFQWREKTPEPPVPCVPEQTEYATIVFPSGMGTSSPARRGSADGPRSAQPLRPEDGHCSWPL
smiles,measurement,setting,value
CSCC[C@H](NC(=O)[C@H](CC(=O)O)NC(=O)[C@H](Cc1ccccc1)NC(=O)[C@H](CCCNC(=N)N)NC(=O)[C@H](Cc1ccc(O)cc1)NC(=O)[C@H](CC(=O)O)NC(=O)[C@H](CCCNC(=N)N)NC(=O)[C@H](CCCNC(=N)N)NC(=O)[C@H](C)NC(=O)[C@@H](NC(=O)[C@H](Cc1c[nH]c2ccccc12)NC(=O)[C@@H](N)CCCNC(=N)N)C(C)C)C(=O)NCC(=O)N[C@@H](Cc1ccccc1)C(=O)N[C@@H](CC(=O)O)C(=O)N[C@@H](Cc1ccc(O)cc1)C(=O)N[C@@H](Cc1c[nH]c2ccccc12)C(=O)N[C@H](C(=O)N[C@@H](Cc1c[nH]c2ccccc12)C(=O)N[C@@H](CCC(=O)O)C(=O)O)C(C)C [2c] (H-RWVARRDYRFDMGFDYWVWE-OH),outcome of time-course competition with excess PDL1,PD1:PDL1 interaction,fully displaced by PDL1; also recorded: easily displaced
same,ΔGF0,"[1]; CD-melt at 228±2 nm, individual two-state Gibbs-Helmholtz fit (Origin 9.0), 0-95 °C, phosphate buffer 15 mM pH 6.5 ± MeOH",-1.26 ± 0.01 kcal/mol
same,Hairpin %-fold 291K,"[1]; Table S5, individual fit, 291 K",93 ± 1%
same,Hairpin %-fold 310K,"[1]; Table S5, individual fit, 310 K",77 ± 1%
same,-TΔSF0,[1]; as E16,12.4 ± 0.2 kcal/mol
same,ΔCpF0,[1]; as E16,-29 ± 7 cal.deg-1.mol-1
same,ΔHF0,[1]; as E16,-13.6 ± 0.2 kcal/mol
same,VT-CD %-fold,"[1]; folded fraction (χF) at 25 °C from CD-melts, (R) regular / (B) bulged fold, phosphate buffer 15 mM pH 6.5, up to 20% MeOH",93% (B)
same,Tm 228 nm Glob.,"[1]; global fit (shared maximum molar ellipticity), 228 nm",48.0 oC
same,Tm 202 nm Glob.,"[1]; global fit, 202 nm",67.5 oC
same,χF (291 K) 202 nm Glob.,"[1]; global fit, 202 nm, 291 K",97%
same,χF (291 K) 228 nm Glob.,"[1]; global fit, 228 nm, 291 K",63%
same,χF (291 K) 202 nm Indiv.,"[1]; individual fit, 202 nm, 291 K",73%
same,χF (291 K) 228 nm Indiv.,"[1]; individual fit, 228 nm, 291 K",56%
same,Tm 228 nm Indiv.,"[1]; individual fit, exciton band 228 nm",36.7 oC
same,Tm 202 nm Indiv.,"[1]; individual fit, β-bulge band 202 nm",62.2 oC
same,VT-CD Tm (°C),"[1]; melting temperature from CD-melts, phosphate buffer 15 mM pH 6.5, up to 20% MeOH",54 °C
same,"DHm, fitted value from OriginPro",[1]; [3],-14.4955 kcal/mol
same,"Tm, fitted value from OriginPro",[1]; [3],327.29 K
same,covalent conjugation to PD1 on SDS-PAGE (in words),N-deglycosylated PD1,No conjugation observed
same,PD1 blockade on CD3+/CD8+ T-effector cells,[2],< 20%

# — publication PMC11562385 (RSC Chemical Biology, 2024)
